Assay results published in patent US9296759B2, “Amino-oxazine and amino-dihydrothiazine compounds as beta-secretase modulators and methods of use” (AMGEN INC., priority 2011, dated 2016).
Read-outs that look alike come from different tables or passages of the source.

Key:
[1] = biological target: BACE 1 (beta secretase enzyme) (Homo sapiens (Human), UniProt P56817); assay: In vitro enzymatic BACE FRET assay; assay type: biochemical; settings: average IC50
Summary of the method: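 The enzyme was tested in 0.05 M acetate, pH 4.2, with 10% DMSO final and 100 uM genapol. The reaction was started with 50 nM quenched FRET peptide substrate, incubated one hour and stopped with Tris to neutral pH. Cleavage was read as fluorescence ([…]).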

[2] = system: Aβ40 in conditioned medium of cells stably expressing Amyloid Precursor Protein (APP); assay: In vitro BACE cell-based assay (HEK cell assay, Aβ40 sandwich ELISA); settings: Homo sapiens, HEK293; average IC50, Aβ40, 24 h incubation
Summary of the method: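 Secreted Aβ40 was quantified by sandwich ELISA (pAb40 capture, biotinylated 6E10 detection, Europium time-resolved fluorescence). IC50 derived from percent inhibition versus concentration.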

Cathepsin D = Cathepsin D (Homo sapiens (Human), UniProt P07339); assay: In vitro enzymatic Cat D (Cathepsin D) FRET assay; assay type: biochemical; settings: average IC50
Chain of Cathepsin D (P07339 65-412, species assumed): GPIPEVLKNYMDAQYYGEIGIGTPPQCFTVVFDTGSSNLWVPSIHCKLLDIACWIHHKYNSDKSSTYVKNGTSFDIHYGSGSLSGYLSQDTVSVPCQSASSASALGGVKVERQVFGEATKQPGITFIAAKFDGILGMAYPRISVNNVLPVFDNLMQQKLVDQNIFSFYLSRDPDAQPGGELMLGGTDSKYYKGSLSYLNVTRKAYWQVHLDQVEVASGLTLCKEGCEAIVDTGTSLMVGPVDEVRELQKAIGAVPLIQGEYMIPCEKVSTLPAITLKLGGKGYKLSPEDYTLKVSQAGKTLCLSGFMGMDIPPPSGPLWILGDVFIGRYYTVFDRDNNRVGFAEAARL
Summary of the method: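 CHO-expressed recombinant enzyme in 0.05 M citrate pH 3.5, 5 mM CHAPS, 10% DMSO final; reaction started with 20 nM quenched-peptide FRET substrate (cleavage site spanned by fluorophore/quencher), 1 h incubation.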

Abeta 40 = assay: In vivo inhibition of beta-secretase: Abeta 40 reduction in CSF and brain of the rat; settings: 10 mpk, after 4 hrs
Excerpt: In Vivo Inhibition of Beta-Secretase
Several animal models, including mouse, rat, dog, and monkey, may be used to screen for inhibition of beta-secretase activity in vivo following administration of a test compound sample. Animals used in this invention can be wild type, transgenic, or gene knockout animals. For example, the Tg2576 mouse model, prepared and conducted as described in Hsiao et al., 1996, Science 274, 99-102, and other non-transgenic or gene knockout animals are useful to analyze in vivo inhibition of Amyloid beta peptide (Abeta) production in the presence of inhibitory test compounds. Generally, 2 to 18 month old Tg2576 mice, gene knockout mice or non-transgenic animals are administered test compounds formulated in vehicles, such as cyclodextran, phosphate buffers, hydroxypropyl methylcellulose or other suitable vehicles. One to twenty-four hours following the administration of compound, animals are sacrificed, and brains as well as cerebrospinal fluid (CSF) and plasma are removed for analysis of A-beta levels and drug or test compound concentrations (Dovey et al., 2001, Journal of Neurochemistry, 76, 173-181) Beginning at time 0, animals are administered by oral gavage, or other means of delivery such as intravenous injection, an inhibitory test compound of up to 100 mg/kg in a standard, conventional formulation, such as 2% hydroxypropyl methylcellulose, 1% Tween80. A separate group of animals receive 2% hydroxypropyl methylcellulose, 1% Tween80 alone, containing no test compound, and serve as a vehicle-control group. At the end of the test period, animals are sacrificed and brain tissues, plasma or cerebrospinal fluid are collected. Brains are either homogenized in 10 volumes (w/v) of 0.2% diethylamine (DEA) in 50 mM NaCl (Best et al., 2005, Journal of Pharmacology and Experimental Therapeutics, 313, 902-908), or in 10 volumes of 0.5% TritonX-100 in Tris-buffered saline (pH at about 7.6). Homogenates are centrifuged at 355,000 g, 4° C. for 30 minutes. CSF or brain supernatants are then analyzed for the presence of A-beta peptide by specific sandwich ELISA assays based on ECL (Electrochemiluminescence) technology. For example, rat Abeta40 is measured using biotinylated-4G8 (Signet) as a capture antibody and Fab40 (an in-house antibody specific to the C-terminal of Abeta40) as a detection antibody. For example, 4 hours after administration of 30 mg/kg oral dose of the test compound in 2% hydroxypropyl methylcellulose, 1% Tween80 (pH2.2) to 200 g male Sprague Dawley rats, amyloid beta peptide levels are measured for reduction by X % and Y % in cerebrospinal fluid and brain, respectively, when compared to the levels measured in the vehicle-treated rats.
• Oral: 2% HPMC, 1% Tween80, pH 2.2 • IV: 5% EtOH, 45% Propylene glycol in 5% Dextrose
The compounds of the invention may be shown to reduce the formation and/or deposition of amyloid beta peptide in the cerebrospinal fluid (CSF) as well as in the brain of a mouse or rat at either 3 mpk, 10 mpk or 30 mpk (mpk=mg compound per kg weight of the animal) dosing concentrations after 4 hrs.

[3] = Abeta 40, rat CSF, read-out: % reduction of rat CSF levels at 10 pmk
[4] = Abeta 40, rat brain, read-out: % reduction of rat brain levels at 10 mpk

Chain of BACE 1 (beta secretase enzyme) (P56817 46-501): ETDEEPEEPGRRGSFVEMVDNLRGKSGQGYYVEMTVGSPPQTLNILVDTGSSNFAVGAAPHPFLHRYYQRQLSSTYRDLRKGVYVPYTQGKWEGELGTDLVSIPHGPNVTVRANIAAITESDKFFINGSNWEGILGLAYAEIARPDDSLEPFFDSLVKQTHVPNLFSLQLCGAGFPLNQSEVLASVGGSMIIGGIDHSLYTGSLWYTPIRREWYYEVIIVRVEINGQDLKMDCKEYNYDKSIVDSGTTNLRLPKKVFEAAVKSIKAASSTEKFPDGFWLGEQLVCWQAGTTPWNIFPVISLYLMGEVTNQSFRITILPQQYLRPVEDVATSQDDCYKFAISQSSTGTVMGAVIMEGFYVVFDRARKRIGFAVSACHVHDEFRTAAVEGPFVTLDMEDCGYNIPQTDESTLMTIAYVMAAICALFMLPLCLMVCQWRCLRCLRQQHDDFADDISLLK

SMILES: NC1=N[C@@]2(CCO1)c1cc(NC(=O)c3ccc(Cl)cn3)ccc1Oc1c2cc(C2=CCOCC2)nc1F [Example 63, N-((5S)-2′-amino-3-(3,6-dihydro-2H-pyran-4-yl)-1-fluoro-5′,6′-dihydrospiro[chromeno[2,3-c]pyridine-5,4′-[1,3]oxazin]-7-yl)-5-chloro-2-pyridinecarboxamide]
- IC50 [1]: 1.4 nM
- IC50 [2]: 0.1 nM
- IC50 (Cathepsin D): 400000 nM
- inhibition in vivo at 10 mg/kg (Abeta 40; [3]): 80%
- inhibition in vivo at 10 mg/kg (Abeta 40; [4]): 75%

SMILES: COc1cnc(C(=O)Nc2ccc3c(c2)[C@@]2(CCOC(N)=N2)c2cc(C4=CCOCC4)nc(F)c2O3)cn1 [Example 65, N-((5S)-2′-amino-3-(3,6-dihydro-2H-pyran-4-yl)-1-fluoro-5′,6′-dihydrospiro[chromeno[2,3-c]pyridine-5,4′-[1,3]oxazin]-7-yl)-5-methoxy-2-pyrazinecarboxamide]
- IC50 [1]: 0.9 nM
- IC50 [2]: 0.051 nM
- IC50 (Cathepsin D): 400000 nM
- inhibition in vivo at 10 mg/kg (Abeta 40; [3]): 83%
- inhibition in vivo at 10 mg/kg (Abeta 40; [4]): 71%

SMILES: COc1cnc(C(=O)Nc2ccc3c(c2)[C@@]2(CCSC(N)=N2)c2cc(C4=CCCOC4)nc(F)c2O3)cn1 [Example 66, N-((5S)-2′-amino-3-(5,6-dihydro-2H-pyran-3-yl)-1-fluoro-5′,6′-dihydrospiro[chromeno[2,3-c]pyridine-5,4′-[1,3]thiazin]-7-yl)-5-methoxy-2-pyrazinecarboxamide]
- IC50 [1]: 1.8 nM
- IC50 [2]: 1 nM
- IC50 (Cathepsin D): 179000 nM
- inhibition in vivo at 10 mg/kg (Abeta 40; [3]): 77%
- inhibition in vivo at 10 mg/kg (Abeta 40; [4]): 66%

SMILES: COc1cnc(C(=O)Nc2ccc3c(c2)[C@@]2(CCSC(N)=N2)c2cc(C4=CCOCC4)nc(F)c2O3)cn1 [Example 67, N-((5S)-2′-amino-3-(3,6-dihydro-2H-pyran-4-yl)-1-fluoro-5′,6′-dihydrospiro[chromeno[2,3-c]pyridine-5,4′-[1,3]thiazin]-7-yl)-5-methoxy-2-pyrazinecarboxamide]
- IC50 [1]: 1.6 nM
- IC50 [2]: 1.4 nM
- IC50 (Cathepsin D): 160000 nM
- inhibition in vivo at 10 mg/kg (Abeta 40; [3]): 66%
- inhibition in vivo at 10 mg/kg (Abeta 40; [4]): 58%

SMILES: NC1=N[C@@]2(CCS1)c1cc(NC(=O)c3ccc(Cl)cn3)ccc1Oc1c2cc(C2=CCCOC2)nc1F [Example 68, N-((5S)-2′-amino-3-(5,6-dihydro-2H-pyran-3-yl)-1-fluoro-5′,6′-dihydrospiro[chromeno[2,3-c]pyridine-5,4′-[1,3]thiazin]-7-yl)-5-chloro-2-pyridinecarboxamide]
- IC50 [1]: 0.8 nM
- IC50 [2]: 0.5 nM
- IC50 (Cathepsin D): 217000 nM
- inhibition in vivo at 10 mg/kg (Abeta 40; [3]): 77%
- inhibition in vivo at 10 mg/kg (Abeta 40; [4]): 73%

SMILES: COc1cnc(C(=O)Nc2ccc3c(c2)[C@@]2(CCOC(N)=N2)c2cc(-c4cncc(F)c4)nc(F)c2O3)cn1 [Example 70, N-((5S)-2′-amino-1-fluoro-3-(5-fluoro-3-pyridinyl)-5′,6′-dihydrospiro[chromeno[2,3-c]pyridine-5,4′-[1,3]oxazin]-7-yl)-5-methoxy-2-pyrazinecarboxamide]
- IC50 [1]: 1.3 nM
- IC50 [2]: 0.6 nM
- IC50 (Cathepsin D): 400000 nM
- inhibition in vivo at 10 mg/kg (Abeta 40; [3]): 70%
- inhibition in vivo at 10 mg/kg (Abeta 40; [4]): 59%

SMILES: NC1=N[C@@]2(CCO1)c1cc(NC(=O)c3ccc(Cl)cn3)ccc1Oc1c2cc(-c2cncc(F)c2)nc1F [Example 71, N-((5S)-2′-amino-1-fluoro-3-(5-fluoro-3-pyridinyl)-5′,6′-dihydrospiro[chromeno[2,3-c]pyridine-5,4′-[1,3]oxazin]-7-yl)-5-chloro-2-pyridinecarboxamide]
- IC50 [1]: 0.6 nM
- IC50 [2]: 0.3 nM
- IC50 (Cathepsin D): 400000 nM
- inhibition in vivo at 10 mg/kg (Abeta 40; [3]): 79%
- inhibition in vivo at 10 mg/kg (Abeta 40; [4]): 70%

SMILES: NC1=N[C@@]2(CCO1)c1cc(NC(=O)c3ccc(F)cn3)ccc1Oc1c2cc(C2=CCOCC2)nc1F [Example 72, N-((5S)-2′-amino-3-(3,6-dihydro-2H-pyran-4-yl)-1-fluoro-5′,6′-dihydrospiro[chromeno[2,3-c]pyridine-5,4′-[1,3]oxazin]-7-yl)-5-fluoro-2-pyridinecarboxamide]
- IC50 [1]: 1.1 nM
- IC50 [2]: 0.2 nM
- IC50 (Cathepsin D): 358000 nM
- inhibition in vivo at 10 mg/kg (Abeta 40; [3]): 78%
- inhibition in vivo at 10 mg/kg (Abeta 40; [4]): 72%

SMILES: NC1=N[C@@]2(CCO1)c1cc(NC(=O)c3ccc(Cl)cn3)ccc1Oc1ncc(C3CC3)cc12 [Example 73, N-((5S)-2′-amino-3-cyclopropyl-5′,6′-dihydrospiro[chromeno[2,3-b]pyridine-5,4′-[1,3]oxazin]-7-yl)-5-chloro-2-pyridinecarboxamide]
- IC50 [1]: 12.7 nM
- IC50 [2]: 3.2 nM
- IC50 (Cathepsin D): 433000 nM
- inhibition in vivo at 10 mg/kg (Abeta 40; [3]): 38%
- inhibition in vivo at 10 mg/kg (Abeta 40; [4]): 7%

SMILES: COc1ccc(C(=O)Nc2ccc3c(c2)[C@@]2(CCOC(N)=N2)c2cc(C4=CCOCC4)nc(F)c2O3)nc1 [Example 78, N-((5S)-2′-amino-3-(3,6-dihydro-2H-pyran-4-yl)-1-fluoro-5′,6′-dihydrospiro[chromeno[2,3-c]pyridine-5,4′-[1,3]oxazin]-7-yl)-5-methoxy-2-pyridinecarboxamide]
- IC50 [1]: 1.5 nM
- IC50 [2]: 0.2 nM
- IC50 (Cathepsin D): 184000 nM
- inhibition in vivo at 10 mg/kg (Abeta 40; [3]): 77%
- inhibition in vivo at 10 mg/kg (Abeta 40; [4]): 70%

SMILES: COc1cnc(C(=O)Nc2ccc3c(c2)[C@@]2(CCOC(N)=N2)c2cc(C4CC4)ncc2O3)cn1 [Example 80, N-((5S)-2′-amino-3-cyclopropyl-5′,6′-dihydrospiro[chromeno[2,3-c]pyridine-5,4′-[1,3]oxazin]-7-yl)-5-methoxy-2-pyrazinecarboxamide]
- IC50 [1]: 6.8 nM
- IC50 [2]: 1.5 nM
- IC50 (Cathepsin D): 963000 nM
- inhibition in vivo at 10 mg/kg (Abeta 40; [3]): 82%
- inhibition in vivo at 10 mg/kg (Abeta 40; [4]): 80%

SMILES: NC1=N[C@@]2(CCO1)c1cc(NC(=O)c3ccc(Cl)cn3)ccc1Oc1cnc(C3CC3)cc12 [Example 81, N-((5S)-2′-amino-3-cyclopropyl-5′,6′-dihydrospiro[chromeno[2,3-c]pyridine-5,4′-[1,3]oxazin]-7-yl)-5-chloro-2-pyridinecarboxamide]
- IC50 [1]: 10.7 nM
- IC50 [2]: 1.1 nM
- IC50 (Cathepsin D): 400000 nM
- inhibition in vivo at 10 mg/kg (Abeta 40; [3]): 76%
- inhibition in vivo at 10 mg/kg (Abeta 40; [4]): 64%

SMILES: COc1ccc(C(=O)Nc2ccc3c(c2)[C@@]2(CCOC(N)=N2)c2cc(C4=CCCOC4)nc(F)c2O3)nc1 [Example 84, N-((5S)-2′-amino-3-(5,6-dihydro-2H-pyran-3-yl)-1-fluoro-5′,6′-dihydrospiro[chromeno[2,3-c]pyridine-5,4′-[1,3]oxazin]-7-yl)-5-methoxy-2-pyridinecarboxamide]
- IC50 [1]: 0.9 nM
- IC50 [2]: 0.1 nM
- IC50 (Cathepsin D): 313000 nM
- inhibition in vivo at 10 mg/kg (Abeta 40; [3]): 83%
- inhibition in vivo at 10 mg/kg (Abeta 40; [4]): 71%

SMILES: COc1ccc(C(=O)Nc2ccc3c(c2)[C@@]2(CCOC(N)=N2)c2cc(-c4cncc(F)c4)nc(F)c2O3)nc1 [Example 87, N-((5S)-2′-amino-1-fluoro-3-(5-fluoro-3-pyridinyl)-5′,6′-dihydrospiro[chromeno[2,3-c]pyridine-5,4′-[1,3]oxazin]-7-yl)-5-methoxy-2-pyridinecarboxamide]
- IC50 [1]: 1.4 nM
- IC50 [2]: 0.5 nM
- IC50 (Cathepsin D): 256000 nM
- inhibition in vivo at 10 mg/kg (Abeta 40; [3]): 75%
- inhibition in vivo at 10 mg/kg (Abeta 40; [4]): 53%
